Data published in the supplement of paper PMC11208160.

Assay: recombinant barcode read abundance after kanamycin selection (control-corrected) (log10(CPM+1)); higher = more efficient recombination; sequences stand for … in AGTGCAGAGAAAATCGGCCAGTTTTCTCTGCCTGCAGTCCGCATGCCGT…AGATTTATGCAGCGGACTGCCTTTCTCCCAAAGTGATAAACCGGACAGTATCATGGACCGGTTTTCCCGGTAATCCGTATTTGCAAGGTTGGTTTCACT; site = the 11-nt target
Method: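 Pooled E. coli target-specificity screen for the IS621 bridge recombinase. Each library plasmid pairs an 11-nt target (CT core) with a bridge RNA whose target-binding loop (9-nt LTG + 4-nt RTG) is reprogrammed; the rest of the 177-nt WT IS621 bridge RNA scaffold is fixed. The plasmid is co-electroporated with a WT donor plasmid; recombinase is induced with 0.1 mM IPTG and recombinants are selected on kanamycin. Recombinant barcodes are sequenced, converted to CPM, averaged over two biological replicates and corrected by the unselected control CPM. Molecule = full bridge RNA written as DNA: LTG = specificity nt 1-9, RTG = reverse complement of specificity nt 8-11, in the WT scaffold.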
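Note: IS621 recombinase and bridge RNA in Escherichia coli cells.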

| Sequence | recombinant barcode read abundance (log10) |
| --- | --- |
| ACGCAGTCTTGGGTTCTAACCTGTTGCCT (site ACGCAATCTAG) | 0.313 |
| ACGCAGTCTTGGGTTCTAACCTGTTGCCT (site ACGCACTCTAG) | 0.0573 |
| ACGCAGTCTTGGGTTCTAACCTGTTGCCT (site ACGCAGTCTAG) | 0.798 |
| ACGCAGTCTTGGGTTCTAACCTGTTGCCT (site ACGCATTCTAG) | 0.129 |
| ACGGACCCTTGGGTTCTAACCTGTTGCAT (site ACGAACCCTAG) | 0.225 |
| ACGGACCCTTGGGTTCTAACCTGTTGCAT (site ACGGACCCTAT) | 2.82 |
| ACGGAGACTTGGGTTCTAACCTGTTGCAT (site ACGGAGACTAT) | 2.78 |
| ACGGAGACTTGGGTTCTAACCTGTTGCAT (site GTACTACCTCG) | 0.108 |
| ACGGCTCCTTGGGTTCTAACCTGTTGCTG (site ACGACTCCTCA) | 0.0439 |
| ACGGCTCCTTGGGTTCTAACCTGTTGCTG (site ACGCCTCCTCA) | 0.116 |
| ACGGCTCCTTGGGTTCTAACCTGTTGCTG (site ACGGCTCCTCA) | 1.35 |
| ACGGCTCCTTGGGTTCTAACCTGTTGCTG (site ACGTCTCCTCA) | 0.123 |
| ACGGGGCCTTGGGTTCTAACCTGTTGCCG (site ACGGGGCCTCG) | 1.88 |
| ACGGGGCCTTGGGTTCTAACCTGTTGCCG (site GTATATACTAA) | 0.116 |
| ACGGGTACTTGGGTTCTAACCTGTTGCCA (site AAGGGTTCTTG) | 0.355 |
| ACGGGTACTTGGGTTCTAACCTGTTGCCA (site ACGGGTACTTG) | 1.02 |
| ACGGTTGCTTGGGTTCTAACCTGTTGCCT (site ACGGGTGCTAG) | 0.434 |
| ACGGTTGCTTGGGTTCTAACCTGTTGCCT (site ACGGTTGCTAG) | 2.22 |
| ACGTAATCTTGGGTTCTAACCTGTTGCTT (site ACGTAATCTAA) | 0.207 |
| ACGTAATCTTGGGTTCTAACCTGTTGCTT (site CGGTAATCTAA) | 0.246 |
| ACGTGAACTTGGGTTCTAACCTGTTGCCT (site ACATGAACTAG) | 0.532 |

| Sequence | recombinant barcode read abundance (log10) |
| --- | --- |
| ACGTGAACTTGGGTTCTAACCTGTTGCCT (site ACCTGAACTAG) | 0.0714 |
| ACGTGAACTTGGGTTCTAACCTGTTGCCT (site ACGTGAACTAG) | 0.416 |
| ACGTGAACTTGGGTTCTAACCTGTTGCCT (site ACTTGAACTAG) | 0.0355 |
| ACGTGTCCTTGGGTTCTAACCTGTTGCGG (site ACGTGTCCTCC) | 1.88 |
| ACGTGTCCTTGGGTTCTAACCTGTTGCGG (site GGAGAGACTAT) | 0.242 |
| ACGTTGTCTTGGGTTCTAACCTGTTGCCT (site ACATTGTCTAG) | 1.24 |
| ACGTTGTCTTGGGTTCTAACCTGTTGCCT (site ACCTTGTCTAG) | 0.0624 |
| ACGTTGTCTTGGGTTCTAACCTGTTGCCT (site ACGTTGTCTAG) | 0.767 |
| ACGTTGTCTTGGGTTCTAACCTGTTGCCT (site ACTTTGTCTAG) | 0.0891 |
| ACTAAGACTTGGGTTCTAACCTGTTGCTG (site ACTAAGACTCA) | 1.96 |
| ACTAAGACTTGGGTTCTAACCTGTTGCTG (site AGTAAGACTTA) | 0.0302 |
| ACTACTCCTTGGGTTCTAACCTGTTGCGA (site ACTACTCCTTC) | 0.93 |
| ACTACTCCTTGGGTTCTAACCTGTTGCGA (site ACTAGTCCTTG) | 0.119 |
| ACTAGGACTTGGGTTCTAACCTGTTGCGG (site ACTAGGACTAC) | 0.0821 |
| ACTAGGACTTGGGTTCTAACCTGTTGCGG (site ACTAGGACTCC) | 2.93 |
| ACTAGGACTTGGGTTCTAACCTGTTGCGG (site ACTAGGACTGC) | 0.444 |
| ACTAGGACTTGGGTTCTAACCTGTTGCGG (site ACTAGGACTTC) | 0.302 |
| ACTAGTCCTTGGGTTCTAACCTGTTGCAT (site ACTAGTCCTAA) | 0.239 |
| ACTAGTCCTTGGGTTCTAACCTGTTGCAT (site ACTAGTCCTAC) | 0.0726 |
| ACTAGTCCTTGGGTTCTAACCTGTTGCAT (site ACTAGTCCTAG) | 0.0896 |
| ACTAGTCCTTGGGTTCTAACCTGTTGCAT (site ACTAGTCCTAT) | 1.29 |

| Sequence | recombinant barcode read abundance (log10) |
| --- | --- |
| ACTAGTCCTTGGGTTCTAACCTGTTGCGT (site ACTAGTCCTAA) | 0.0427 |
| ACTAGTCCTTGGGTTCTAACCTGTTGCGT (site ACTAGTCCTAC) | 2.25 |
| ACTAGTCCTTGGGTTCTAACCTGTTGCGT (site ACTAGTCCTAG) | 0.133 |
| ACTAGTCCTTGGGTTCTAACCTGTTGCGT (site ACTAGTCCTAT) | 0.894 |
| ACTATAACTTGGGTTCTAACCTGTTGCTT (site ACTATAACTAA) | 0.401 |
| ACTATAACTTGGGTTCTAACCTGTTGCTT (site ACTCTAACTAA) | 0.535 |
| ACTATAACTTGGGTTCTAACCTGTTGCTT (site ACTGTAACTAA) | 0.125 |
| ACTATAACTTGGGTTCTAACCTGTTGCTT (site ACTTTAACTAA) | 0.0487 |
| ACTCACACTTGGGTTCTAACCTGTTGCTT (site ACTCACACTAA) | 1.06 |
| ACTCACACTTGGGTTCTAACCTGTTGCTT (site GGAGCTCCTCG) | 0.00954 |
| ACTCAGACTTGGGTTCTAACCTGTTGCAC (site ACTCAGACTGT) | 1.9 |
| ACTCAGACTTGGGTTCTAACCTGTTGCAC (site GGAGGTCCTCG) | 0.222 |
| ACTCCAGCTTGGGTTCTAACCTGTTGCCT (site ACTCCAGCTAG) | 1.79 |
| ACTCCAGCTTGGGTTCTAACCTGTTGCCT (site TAGTTTACTCT) | 0.0793 |
| ACTCGTTCTTGGGTTCTAACCTGTTGCTT (site ACTCGTTCTAA) | 0.326 |
| ACTCGTTCTTGGGTTCTAACCTGTTGCTT (site GCTAGTTCTAA) | 0.0673 |
| ACTCTACCTTGGGTTCTAACCTGTTGCTA (site ACCCTCCCTTA) | 0.0533 |
| ACTCTACCTTGGGTTCTAACCTGTTGCTA (site ACTCTACCTTA) | 1.12 |
| ACTCTAGCTTGGGTTCTAACCTGTTGCTC (site ACTCTAGCTGA) | 1.05 |
| ACTCTAGCTTGGGTTCTAACCTGTTGCTC (site GCTCTAGCTTA) | 0.265 |
| ACTCTGTCTTGGGTTCTAACCTGTTGCTT (site ACCCTATCTAA) | 0.124 |

| Sequence | recombinant barcode read abundance (log10) |
| --- | --- |
| ACTCTGTCTTGGGTTCTAACCTGTTGCTT (site ACTCTGTCTAA) | 1.86 |
| ACTGATGCTTGGGTTCTAACCTGTTGCCT (site ACTGATACTAG) | 1.08 |
| ACTGATGCTTGGGTTCTAACCTGTTGCCT (site ACTGATCCTAG) | 0.0449 |
| ACTGATGCTTGGGTTCTAACCTGTTGCCT (site ACTGATGCTAG) | 2.09 |
| ACTGATGCTTGGGTTCTAACCTGTTGCCT (site ACTGATTCTAG) | 0.0409 |
| ACTGTATCTTGGGTTCTAACCTGTTGCCT (site ACTGTATCTAG) | 1.13 |
| ACTGTATCTTGGGTTCTAACCTGTTGCCT (site CCTGTATCTAG) | 0.134 |
| ACTGTATCTTGGGTTCTAACCTGTTGCCT (site GCTGTATCTAG) | 0.0734 |
| ACTGTATCTTGGGTTCTAACCTGTTGCCT (site TCTGTATCTAG) | 0.231 |
| ACTGTCACTTGGGTTCTAACCTGTTGCCT (site ACTGTCACTAG) | 2.36 |
| ACTGTCACTTGGGTTCTAACCTGTTGCCT (site ACTGTGACTAG) | 0.0913 |
| ACTGTGACTTGGGTTCTAACCTGTTGCCT (site ACTGTCACTAG) | 0.317 |
| ACTGTGACTTGGGTTCTAACCTGTTGCCT (site ACTGTGACTAG) | 2.71 |
| ACTTAGACTTGGGTTCTAACCTGTTGCCC (site ACTTAGACTAG) | 0.424 |
| ACTTAGACTTGGGTTCTAACCTGTTGCCC (site ACTTAGACTCG) | 0.333 |
| ACTTAGACTTGGGTTCTAACCTGTTGCCC (site ACTTAGACTGG) | 1.46 |
| ACTTAGACTTGGGTTCTAACCTGTTGCCC (site ACTTAGACTTG) | 0 |
| ACTTAGTCTTGGGTTCTAACCTGTTGCTC (site ACTTAGTCTGA) | 1.04 |
| ACTTAGTCTTGGGTTCTAACCTGTTGCTC (site TGCCCCGCTAG) | 0.0305 |
